Laboratory results reported in article PMC8584989 (International Journal of Molecular Sciences, 2021).

Legend:
[1] = system: HL60-par cells; assay: XTT proliferation / drug combination assay; type: cell-based; details: read-out: IC50 (IC50-shift analysis)
Protocol: (§1) These colorimetric assays were used in various studies presented in this paper (prior induction studies, MDR reversal experiments and comparative viability assays) and were performed as reported previously. […] In MTT experiments, cells were seeded on a 96-well culture plate at densities (in number of cells/well) of 1.3 × 10^4 for MDCKII-par, MDCKII-ABCB1 and MDCKII-ABCG2; 1.2 × 10^4 for A431-par, A431-ABCB1, A431-ABCG2 and A431-ABCC1; 1.2 × 10^4 for NCI-H1299; 1.0 × 10^4 for A459; 2.0 × 10^4 for Caco-2; 5.0 × 10^4 for LS174T; and 1.0 × 10^4 for primary NSCLC explants. On the other hand, for XTT cells were seeded with densities 2.0 × 10^4 for HL60-par, HL60-ABCB1, HL60-ABCG2 and HL60-ABCC1 cells/well on 96-well plates. […] Following 48 h incubation with drugs, Opti-MEM solutions of MTT or XTT (1 mg/mL) with phenazine methosulfate solution (7.50 μg/mL; only for XTT) was added and the cells were incubated for 1 h with the exception of HL60s that were incubated for 5 h.
(§2) Based on the computed CI values, the effects of drug combinations were classified as synergistic (CI < 0.9), additive (0.9 < CI < 1.1) or antagonistic (CI > 1.1).

[2] = system: A431-ABCG2 cells; assay: MTT proliferation / drug combination assay; details: read-out: IC50 (IC50-shift analysis)
[3] = system: HL60-ABCG2 cells; assay: XTT proliferation / drug combination assay; details: read-out: IC50 (IC50-shift analysis)
[4] = system: A431-par cells; assay: MTT proliferation / drug combination assay; type: cell-based; details: read-out: IC50 (IC50-shift analysis)
Protocol: as §1, §2

[5] = system: HL60-ABCB1 cells; assay: XTT proliferation / drug combination assay; details: read-out: IC50 (IC50-shift analysis)
[6] = system: MDCKII-ABCB1 cells; assay: MTT proliferation / drug combination assay; details: Canis lupus familiaris, read-out: IC50 (IC50-shift analysis)
[7] = system: MDCKII-parent cells; assay: MTT proliferation / drug combination assay; type: cell-based, canine; details: Canis lupus familiaris, read-out: IC50 (IC50-shift analysis)
Protocol: as §1, §2

[8] = system: A431-ABCB1 cells; assay: MTT proliferation / drug combination assay; details: read-out: IC50 (IC50-shift analysis)

SMILES	IC50 [1] [nM]	IC50 [2] [nM]	IC50 [3] [nM]	IC50 [4] [nM]	IC50 [5] [nM]	IC50 [6] [nM]	IC50 [7] [nM]	IC50 [8] [nM]
O=C1c2c(O)ccc(O)c2C(=O)c2c(NCCNCCO)ccc(NCCNCCO)c21 [mitoxantrone]	30.5	56500	669	2100	–	–	–	–
COc1cccc2c1C(=O)c1c(O)c3c(c(O)c1C2=O)C[C@@](O)(C(C)=O)C[C@@H]3O[C@H]1C[C@H](N)[C@H](O)[C@H](C)O1 [daunorubicin]	53.1	–	–	1990	2140	11900	947	21700
